Results published in paper PMC9358669, “Native metabolomics identifies the rivulariapeptolide family of protease inhibitors” (Nature Communications, 2022).
Read-outs that look alike come from different tables or passages of the source. Starred links: 1 amine or outer side, 2 acyl side, 3 side chain; linkers in the order of their positions; H or OH if unused. Positions of bridges follow the written chain, without caps; N, C: chain ends. Non-standard residues stand in square brackets, D forms with d. Residues, ends and D or L forms follow the SMILES beside them. *: point of attachment. Ahp(3S,6R)alloIle = CC[C@@H](C)[C@@H](C(=O)[*:2])N1C(=O)[C@@H](N[*:1])CC[C@H]1O; Propanoyl(2R-OH,3-(4-HOPh)) = O=C([C@H](O)Cc1ccc(O)cc1)*; NMeF = CN[C@@H](Cc1ccccc1)C(=O)O

Assays:
[1] = test system: Chymotrypsin; set-up: method as in earlier work; details: Supplementary Table 5, Top 50 chymotrypsin inhibitors among Ahp-cyclodepsipeptides; cited from earlier work
[2] = target: T1, Chymotrypsin (Bos taurus, UniProt P00766); test: Chymotrypsin inhibition, fluorogenic substrate assay (Suc-Ala-Ala-Pro-Phe-AMC); assay type: biochemical; details: for Mean (RFU/s): Chymotrypsin
T1 construct: purchased Sigma-Aldrich

[3] = target: T2, Elastase (Sus scrofa, UniProt P00772); test: Elastase inhibition, fluorogenic substrate assay (MeOSuc-Ala-Ala-Pro-Val-AMC); assay type: biochemical, Sus domesticus; details: for Mean (RFU/s): Elastase
T2 construct: purchased Sigma-Aldrich
T2 sequence (P00772 27-266): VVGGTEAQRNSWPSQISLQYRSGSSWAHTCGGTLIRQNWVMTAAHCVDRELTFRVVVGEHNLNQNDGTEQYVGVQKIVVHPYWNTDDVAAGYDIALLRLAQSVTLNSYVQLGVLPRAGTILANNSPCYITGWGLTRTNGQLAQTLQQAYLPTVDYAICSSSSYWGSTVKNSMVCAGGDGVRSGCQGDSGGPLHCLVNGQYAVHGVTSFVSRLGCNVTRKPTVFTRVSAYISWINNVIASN

[4] = target: T3, Proteinase K (Parengyodontium album, UniProt P06873); test: Proteinase K inhibition, fluorogenic substrate assay (Suc-Ala-Ala-Pro-Phe-AMC); assay type: biochemical, Tritirachium album; details: 40 min pre-incubation; for Mean (RFU/s): Proteinase K
T3 construct: purchased Roche
T3 sequence (P06873 106-384): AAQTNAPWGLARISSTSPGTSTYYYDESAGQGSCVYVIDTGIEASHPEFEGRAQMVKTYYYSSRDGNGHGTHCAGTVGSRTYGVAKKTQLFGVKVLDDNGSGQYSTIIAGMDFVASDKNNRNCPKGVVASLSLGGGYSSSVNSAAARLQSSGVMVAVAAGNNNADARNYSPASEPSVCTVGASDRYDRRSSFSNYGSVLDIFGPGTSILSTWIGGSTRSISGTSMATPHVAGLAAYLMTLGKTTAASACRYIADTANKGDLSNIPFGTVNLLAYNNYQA

[5] = inhibitor concentration 0.0508053 nM, 40 min pre-incubation
[6] = inhibitor concentration 0.152416 nM, 40 min pre-incubation
[7] = inhibitor concentration 0.457247 nM, 40 min pre-incubation
[8] = inhibitor concentration 1.37174 nM, 40 min pre-incubation
[9] = inhibitor concentration 4.11523 nM, 40 min pre-incubation
[10] = inhibitor concentration 12.3457 nM, 40 min pre-incubation
[11] = inhibitor concentration 37.037 nM, 40 min pre-incubation
[12] = inhibitor concentration 111.111 nM, 40 min pre-incubation
[13] = inhibitor concentration 333.333 nM, 40 min pre-incubation
[14] = inhibitor concentration 1000 nM, 40 min pre-incubation
[15] = inhibitor concentration 3000 nM, 40 min pre-incubation
[16] = replacement of Abu (compound 2) for Leu (1)

CC[C@@H](C)[C@H]1NC(=O)[C@@H](Cc2ccccc2)N(C)C(=O)[C@@H](CC(C)C)N2C(=O)[C@@H](CC[C@@H]2O)NC(=O)[C@@H](Cc2ccc(O)cc2)NC(=O)[C@H](NC(=O)[C@H](CCC(N)=O)NC(=O)[C@H](O)Cc2ccc(O)cc2)[C@@H](C)OC1=O [Micropeptin DR1056]
IC50 [1]: 1600 nM

CCCCCCCC(=O)N[C@@H](CCC(=O)O)C(=O)N[C@@H]1C(=O)N[C@@H](Cc2ccc(O)cc2)C(=O)N[C@H]2CC[C@@H](O)N(C2=O)[C@@H](Cc2ccccc2)C(=O)N(C)[C@@H](Cc2ccc(O)cc2)C(=O)N[C@@H](C(C)C)C(=O)O[C@@H]1C [Micropeptin D]
IC50 [1]: 1200 nM

CCCCCC(=O)N[C@@H](CCC(=O)O)C(=O)N[C@@H]1C(=O)N[C@@H](Cc2ccc(O)cc2)C(=O)N[C@H]2CC[C@@H](O)N(C2=O)[C@@H](CC(C)C)C(=O)N(C)[C@@H](Cc2ccc(O)cc2)C(=O)N[C@@H](C(C)C)C(=O)O[C@@H]1C [Micropeptin E]
IC50 [1]: 1000 nM

CCCCCCCC(=O)N[C@@H](CCC(=O)O)C(=O)N[C@@H]1C(=O)N[C@@H](Cc2ccc(O)cc2)C(=O)N[C@H]2CC[C@@H](O)N(C2=O)[C@@H](CC(C)C)C(=O)N(C)[C@@H](Cc2ccc(O)cc2)C(=O)N[C@@H](C(C)C)C(=O)O[C@@H]1C [Micropeptin F]
IC50 [1]: 1500 nM

CC[C@H](C)[C@@H]1NC(=O)[C@H](Cc2ccccc2)N(C)C(=O)[C@H](C(C)C)N2C(=O)[C@H](CC[C@H]2O)NC(=O)[C@H](CC2C=CC(O)CC2)NC(=O)[C@@H](NC(=O)[C@@H](CCC(N)=O)NC(=O)C(O)Cc2ccc(O)cc2)[C@H](C)OC1=O (stereo partly shown) [Micropeptin KB1046]
IC50 [1]: 220 nM

CC[C@@H](C)[C@H]1C(=O)N(C)[C@@H](Cc2ccccc2)C(=O)N[C@@H](C(C)C)C(=O)O[C@H](C)[C@H](NC(=O)[C@H](CCC(N)=O)NC(=O)[C@H](O)Cc2ccc(O)cc2)C(=O)N[C@@H](Cc2ccc(O)cc2)C(=O)N[C@H]2CC[C@@H](O)N1C2=O [Micropeptin KT1042] ({Propanoyl(2R-OH,3-(4-HOPh))}-QTY[Ahp(3S,6R)alloIle][NMeF]V; ester 2-C)
IC50 [1]: 260 nM

CCCCCC(=O)NCC(=O)N[C@H](C(=O)N[C@@H]1C(=O)N[C@@H](CCC(N)=O)C(=O)N[C@H]2CC[C@@H](O)N(C2=O)[C@@H](Cc2ccccc2)C(=O)N(C)[C@@H](Cc2ccc(O)cc2)C(=O)N[C@@H](C(C)C)C(=O)O[C@@H]1C)[C@@H](C)O [Micropeptin LH1021]
IC50 [1]: 1100 nM

CC[C@H](C)[C@@H]1NC(=O)[C@H](Cc2ccccc2)N(C)C(=O)[C@H](Cc2ccccc2)N2C(=O)[C@H](CC[C@H]2O)NC(=O)[C@H](CC(C)C)NC(=O)[C@@H](NC(=O)[C@H](O)CO)[C@@H](C)OC1=O [Micropeptin MM836]
IC50 [1]: 1400 nM

CC[C@H](C)[C@@H]1NC(=O)[C@H](Cc2ccc(O)cc2)N(C)C(=O)[C@H]([C@@H](C)CC)N2C(=O)C(CCC2O)NC(=O)[C@H](CC(C)C)NC(=O)[C@@H]2C(OC1=O)C(C)CN2C(=O)[C@H](CCC(N)=O)NC(C)=O (stereo partly shown) [Nostopeptin B]
IC50 [1]: 1600 nM

CC[C@H](C)[C@@H]1NC(=O)[C@H](Cc2ccc(OC)cc2)N(C)C(=O)[C@H]([C@@H](C)O)N2C(=O)[C@H](CC[C@H]2O)NC(=O)[C@H](CC(C)C)NC(=O)[C@@H](NC(=O)[C@H](CCC(N)=O)NC(=O)[C@H](CCc2ccc(O)cc2)NC(=O)[C@@H](O)CO)[C@@H](C)OC1=O [Planktopeptin BL1125]
IC50 [1]: 800 nM

CCCC(=O)N1CCCC1C(=O)NC(C(=O)NC1C(=O)NC(CC(C)C)C(=O)NC2CCC(O)N(C2=O)C(Cc2ccccc2)C(=O)N(C)C(Cc2ccc(O)cc2)C(=O)NC(C(C)C)C(=O)OC1C)C(C)OC(=O)C1CCCN1C(=O)CCC (stereo not shown) [Rivulariapeptolide 1185, rivulariapeptolide 1185]
IC50 ([2]; 40 min pre-incubation, mean, n = 3, read-out: IC50 Chymotrypsin): 13.2 nM
Mean (RFU/s) [2, 5]: 5.046 RFU/s
Mean (RFU/s) [2, 6]: 5.119 RFU/s
Mean (RFU/s) [2, 7]: 5.025 RFU/s
Mean (RFU/s) [2, 8]: 5.024 RFU/s
Mean (RFU/s) [2, 9]: 4.153 RFU/s
Mean (RFU/s) [2, 10]: 2.685 RFU/s
Mean (RFU/s) [2, 11]: 1.084 RFU/s
Mean (RFU/s) [2, 12]: 0.416 RFU/s
Mean (RFU/s) [2, 13]: 0.1823 RFU/s
Mean (RFU/s) [2, 14]: 0 RFU/s
Mean (RFU/s) [2, 15]: 0 RFU/s
IC50 ([2]; Supplementary Table 5, compounds of this study, read-out: Chymotrypsin IC50): 13.2 nM
increase in potency towards chymotrypsin [2, 16]: more than threefold
IC50 ([3]; 40 min pre-incubation, mean, n = 3): 23.6 nM
Mean (RFU/s) [3, 5]: 0.9257 RFU/s
Mean (RFU/s) [3, 6]: 0.9033 RFU/s
Mean (RFU/s) [3, 7]: 0.876 RFU/s
Mean (RFU/s) [3, 8]: 0.8487 RFU/s
Mean (RFU/s) [3, 9]: 0.7693 RFU/s
Mean (RFU/s) [3, 10]: 0.589 RFU/s
Mean (RFU/s) [3, 11]: 0.369 RFU/s
Mean (RFU/s) [3, 12]: 0.07933 RFU/s
Mean (RFU/s) [3, 13]: 0.02233 RFU/s
Mean (RFU/s) [3, 14]: 0 RFU/s
Mean (RFU/s) [3, 15]: 0 RFU/s
decrease in potency towards elastase [3, 16]: fivefold
IC50 ([4]; mean, n = 3): 55.3 nM
Mean (RFU/s) ([4]; inhibitor concentration 0.0508053 nM): 6.418 RFU/s
Mean (RFU/s) ([4]; inhibitor concentration 0.152416 nM): 6.488 RFU/s
Mean (RFU/s) ([4]; inhibitor concentration 0.457247 nM): 6.316 RFU/s
Mean (RFU/s) ([4]; inhibitor concentration 1.37174 nM): 6.389 RFU/s
Mean (RFU/s) ([4]; inhibitor concentration 4.11523 nM): 6.178 RFU/s
Mean (RFU/s) ([4]; inhibitor concentration 12.3457 nM): 5.621 RFU/s
Mean (RFU/s) ([4]; inhibitor concentration 37.037 nM): 4.195 RFU/s
Mean (RFU/s) ([4]; inhibitor concentration 111.111 nM): 1.657 RFU/s
Mean (RFU/s) ([4]; inhibitor concentration 333.333 nM): 0.4863 RFU/s
Mean (RFU/s) ([4]; inhibitor concentration 1000 nM): 0.13 RFU/s
Mean (RFU/s) ([4]; inhibitor concentration 3000 nM): 0.04267 RFU/s
